Measurements taken from patent US10954214B2 (Janssen Pharmaceutica NV, priority 2016, dated 2021).
pIC50: −log10 of the molar value.

Legend:
TMD8 cells = assay: 4-day proliferation assay, TMD8; assay type: cell-based; conditions: Homo sapiens, 96 h, 4 days incubation, CellTiterGLO, read-out: Anti-proliferation: TMD-8 IC50
Outline: (§1)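 TMD8 and OCI-Ly3 cells were seeded at 10,000 per well and grown 4 days at 37° C, 5% CO2 without beta-mercaptoethanol. Viability was read by CellTiter-Glo luminescence. IC50 and Hill slope were fitted relative to the low control median.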

[1] = tested on: IL6 secretion by TMD8 ABC-DLBCL cells; assay: Human IL6 Mesoscale assay (TMD-8); assay type: cell-based; conditions: Homo sapiens, TMD8; TMD-8 cells, 24 h
Outline: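 TMD8 or OCI-LY3 cells (100,000/well) were exposed to compounds in 9 twofold dilutions from 15 μM to 58.6 nM (0.3% DMSO) for 24 h at 37 °C. Supernatant IL6 and IL10 were quantified by MSD electrochemiluminescence immunoassay. DMSO defined maximum signal and BTK inhibitor RN486 (30 nM–131 pM) defined maximum inhibition.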

OCI-Ly3 cells = assay: 4-day proliferation assay, OCI-Ly3; assay type: cell-based, human; conditions: Homo sapiens, 96 h, 4 days incubation, CellTiterGLO, read-out: Anti-proliferation: OCI-LY-3 IC50
Outline: as §1

Jurkat cells = assay: PMA Induced IL2 Production In Jurkat Cells; assay type: cell-based; conditions: Homo sapiens, PMA/Ionomycin, 20 h, read-out: IL-2 prod h Jurkat PMA IC50
Method: Jurkat cells were maintained in complete RPMI 1640 media containing 10% fetal bovine serum, 10 mM HEPES, 100 units/mL of penicillin and 100 μg/mL of streptomycin. Prior to the assay, compounds were made 2- to 4-fold serial dilutions in DMSO. A volume of 10 μL of DMSO-diluted compound in each well were further diluted into 240 μL RPMI1640 complete media. Jurkat cells were harvested by centrifuge at 1200 RPM for 5 min, washed one time with RPMI 1640 media, and suspended in fresh complete RPMI 1640 media at concentration of 1.25×10^6 cell/mL. A volume of 160 uL of Jurkat cells (2×10^5 cells) were seeded in each well of 96 well plate-bottom plates. A volume of 20 uL of diluted compound in RMPI 1640 complete media were added to each well and incubated with Jurkat cells for 30 min at 37° C. in a 5% CO2 incubator. A volume 20 μL of diluted PMA/Ionomycin (81 nM/1.3 uM respectively, ebioscience, catalog number 00-4970-93) in RMPI 1640 complete media were added to each well. After incubation at 37° C. in 5% CO2 incubator for 20 h, supernatants were harvested. IL-2 concentration was assessed by ELISA (IL2 Duoset, R&D Systems, catalog number DY202). Colorimetric intensity at 450 nm was read by Spectramax plate reader and analyzed with Softmax Pro software. Cell viability was assessed by Cell Titer Glo kit (Promega, catalog number G7571) using Victor Luminescence reader (Victor 3V 4202938 by Perkin Elmer).

[2] = target: full-length MALT1 protein (Strep-MALT1(1-824)-His) (Homo sapiens (Human), UniProt Q9UDY8); assay: MALT1 Biochemical Protease Assay (Ac-LRSR-AMC substrate); conditions: 10 nM FL MALT1, 200 μM Ac-LRSR-AMC, 4 h at RT; read-out: MALT1_Biochemical activity (Ac-LRSR-amc) IC50
Outline: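 Full-length MALT1 pre-incubated with compounds (30 μM to 0.5 nM, 11 threefold steps) for 50 min at RT. After Ac-LRSR-AMC was added, the reaction ran 4 h at RT and AMC fluorescence was read. IC50 and Hill slope from curve fitting against no-enzyme and no-compound controls.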

full-length MALT1 protein (Strep-MALT1(1-824)-His), sequence (Q9UDY8 whole entry): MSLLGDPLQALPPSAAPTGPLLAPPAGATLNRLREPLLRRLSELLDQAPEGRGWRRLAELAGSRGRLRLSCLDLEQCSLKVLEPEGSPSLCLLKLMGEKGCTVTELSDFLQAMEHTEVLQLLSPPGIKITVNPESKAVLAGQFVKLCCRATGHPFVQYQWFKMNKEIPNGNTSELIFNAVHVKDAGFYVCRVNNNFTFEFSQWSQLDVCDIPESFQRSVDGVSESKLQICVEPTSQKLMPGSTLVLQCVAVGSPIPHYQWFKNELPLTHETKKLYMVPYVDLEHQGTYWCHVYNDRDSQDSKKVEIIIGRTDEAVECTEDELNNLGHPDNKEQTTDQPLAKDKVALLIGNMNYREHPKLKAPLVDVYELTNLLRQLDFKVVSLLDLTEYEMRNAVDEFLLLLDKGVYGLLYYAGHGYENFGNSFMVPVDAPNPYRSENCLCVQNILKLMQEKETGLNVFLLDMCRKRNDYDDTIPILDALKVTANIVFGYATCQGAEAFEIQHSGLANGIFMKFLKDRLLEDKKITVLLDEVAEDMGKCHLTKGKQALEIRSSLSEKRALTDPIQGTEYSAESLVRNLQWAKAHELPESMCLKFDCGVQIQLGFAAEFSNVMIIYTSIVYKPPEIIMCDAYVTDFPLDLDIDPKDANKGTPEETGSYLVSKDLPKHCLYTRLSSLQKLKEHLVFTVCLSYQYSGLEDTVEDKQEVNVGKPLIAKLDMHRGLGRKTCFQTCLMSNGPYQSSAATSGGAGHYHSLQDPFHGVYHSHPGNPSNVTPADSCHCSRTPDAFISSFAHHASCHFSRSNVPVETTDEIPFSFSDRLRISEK

SMILES	pIC50 (TMD8 cells)	pIC50 [1]	pIC50 (OCI-Ly3 cells)	pIC50 (Jurkat cells)	pIC50 [2]
N#Cc1cncc(NC(=O)c2cnn(-c3cccc4ccccc34)c2C(F)(F)F)c1 [Cpd 5, N-(5-Cyanopyridin-3-yl)-1-(naphthalen-1-yl)-5-(trifluoromethyl)-1H-pyrazole-4-carboxamide]	< 4.70	6.55	~6.11	6.85	6.67
O=C(Nc1ccnc(C(F)(F)F)c1)c1cnn(-c2cccc3ncccc23)c1C(F)(F)F [Cpd 6, 1-(Quinolin-5-yl)-5-(trifluoromethyl)-N-(2-(trifluoromethyl)pyridin-4-yl)-1H-pyrazole-4-carboxamide]	5.03	6.95	6.21	7.64	7.04
COc1ncc(NC(=O)c2cnn(-c3cccc4ncccc34)c2C(F)(F)F)cc1Cl [Cpd 7, N-(5-Chloro-6-methoxypyridin-3-yl)-1-(quinolin-5-yl)-5-(trifluoromethyl)-1H-pyrazole-4-carboxamide]	~4.85	6.78	6.37	6.89	7.39
O=C(Nc1cnc(-n2nccn2)c(Cl)c1)c1cnn(-c2cccc3ncccc23)c1C(F)(F)F [Cpd 8, N-(5-Chloro-6-(2H-1,2,3-triazol-2-yl)pyridin-3-yl)-1-(quinolin-5-yl)-5-(trifluoromethyl)-1H-pyrazole-4-carboxamide]	~5.12	7.49	6.96	8.28	7.89
Cc1cc2ccccc2c(-n2ncc(C(=O)Nc3cnc(-n4nccn4)c(Cl)c3)c2C(F)(F)F)n1 [Cpd 9, N-(5-Chloro-6-(2H-1,2,3-triazol-2-yl)pyridin-3-yl)-1-(3-methylisoquinolin-1-yl)-5-(trifluoromethyl)-1H-pyrazole-4-carboxamide]	4.97	6.71	~5.62	7.41	7.19
O=C(Nc1ccc(-n2nccn2)c(Cl)c1)c1cnn(-c2cccc3ccncc23)c1C(F)(F)F [Cpd 11, N-(3-chloro-4-(2H-1,2,3-triazol-2-yl)phenyl)-1-(isoquinolin-8-yl)-5-(trifluoromethyl)-1H-pyrazole-4-carboxamide]	4.90	~4.87	~5.02	6.17	6.01
CCc1c(C(=O)Nc2cnc(-n3nccn3)c(Cl)c2)cnn1-c1cccc2ncccc12 [Cpd 17, N-(5-Chloro-6-(2H-1,2,3-triazol-2-yl)pyridin-3-yl)-5-ethyl-1-(quinolin-5-yl)-1H-pyrazole-4-carboxamide]	5.03	6.10	~5.36	6.77	6.85
N#Cc1cc(NC(=O)c2cnn(-c3cccc4ccncc34)c2C(F)(F)F)cnc1-n1nccn1 [Cpd 19, N-(5-cyano-6-(2H-1,2,3-triazol-2-yl)pyridin-3-yl)-1-(isoquinolin-8-yl)-5-(trifluoromethyl)-1H-pyrazole-4-carboxamide]	< 4.70	5.71	5.96	6.39	6.64
O=C(Nc1cnc(-c2ncco2)c(Cl)c1)c1cnn(-c2cccc3ccncc23)c1C(F)(F)F [Cpd 22, N-(5-chloro-6-(oxazol-2-yl)pyridin-3-yl)-1-(isoquinolin-8-yl)-5-(trifluoromethyl)-1H-pyrazole-4-carboxamide]	4.77	< 4.82	~6.51	5.73	6.18
COc1ncc(NC(=O)c2cnn(-c3cncc4ccccc34)c2C(F)(F)F)cc1Cl [Cpd 23, N-(5-chloro-6-methoxypyridin-3-yl)-1-(isoquinolin-4-yl)-5-(trifluoromethyl)-1H-pyrazole-4-carboxamide]	5.08	6.97	5.47	6.09	7.05
